{
  "source": "paper PMC6934184",
  "about": "“Selective DNA-PKcs inhibition extends the therapeutic index of localized radiotherapy and chemotherapy” (The Journal of Clinical Investigation, 2019)",
  "target": "T1, PTK6 (Brk) (Homo sapiens, UniProt Q13882)",
  "T1 construct": "purchased Thermo Fisher Scientific (Life Technologies) SelectScreen",
  "T1 sequence (Q13882 whole entry)": "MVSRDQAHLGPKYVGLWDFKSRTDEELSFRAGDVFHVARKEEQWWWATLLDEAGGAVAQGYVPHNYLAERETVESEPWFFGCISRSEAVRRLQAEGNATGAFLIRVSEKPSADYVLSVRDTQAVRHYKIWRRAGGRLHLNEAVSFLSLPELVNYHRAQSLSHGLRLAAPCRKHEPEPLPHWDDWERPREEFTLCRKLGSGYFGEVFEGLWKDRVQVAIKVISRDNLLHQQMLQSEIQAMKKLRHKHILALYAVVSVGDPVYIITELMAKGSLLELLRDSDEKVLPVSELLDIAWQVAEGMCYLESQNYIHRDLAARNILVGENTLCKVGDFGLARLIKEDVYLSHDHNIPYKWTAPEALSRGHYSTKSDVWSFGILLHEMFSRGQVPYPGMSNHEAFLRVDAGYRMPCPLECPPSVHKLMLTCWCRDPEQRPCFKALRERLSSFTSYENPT",
  "test": "SelectScreen Z'LYTE",
  "type": "biochemical",
  "outline": "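SelectScreen broad panel; activity (Z'LYTE, Adapta) plus binding formats. ATP: Km app for CSF1R Z'LYTE; 10 for CAMK1 Adapta. Readout = % per kinase.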",
  "data": [
    {"smiles": "CN(C(=O)CN1CCOCC1)c1ccc2sc3c(-c4cccc5c(=O)cc(N6CC7CCC(C6)O7)oc45)cccc3c2c1", "note": "[NU5455]", "values": [
      {"measurement": "inhibition at 1 µM", "value": 0.7, "unit": "%"}
    ]}
  ]
}
